Laboratory results reported in patent publication US20190106460A1, “BINDING INHIBITORS OF THE BETA. TRANSDUCIN REPEAT-CONTAINING PROTEIN” (priority 2011, published 2019).
Like-named read-outs stand apart in the source and are kept apart here. Starred links: 1 amine or outer side, 2 acyl side, 3 side chain; linkers in the order of their positions; H or OH if unused. Non-standard residues stand in square brackets, D forms with d. Residues, ends and D or L forms follow the SMILES beside them. Phe(4-NO2) = N[C@@H](Cc1ccc([N+](=O)[O-])cc1)C(=O)O; Phe(3-F) = N[C@@H](Cc1cccc(F)c1)C(=O)O; Phe(4-F) = N[C@@H](Cc1ccc(F)cc1)C(=O)O; 1Nal = N[C@@H](Cc1cccc2ccccc12)C(=O)O; Phe(2-F) = N[C@@H](Cc1ccccc1F)C(=O)O; Maleoyl = O=C(/C=C\C(=O)[*:2])[*:1]; Suc = O=C(CCC(=O)[*:2])[*:1]

Columns and labels:
βTrCP/Skp1 = βTrCP/Skp1 (Homo sapiens, UniProt Q9Y297); assay: Surface plasmon resonance (SPR), Biacore T200; format: binding; conditions: apparent KD averaged over both surfaces
Sequence of βTrCP/Skp1 (P63208 whole entry partner, one chain of several): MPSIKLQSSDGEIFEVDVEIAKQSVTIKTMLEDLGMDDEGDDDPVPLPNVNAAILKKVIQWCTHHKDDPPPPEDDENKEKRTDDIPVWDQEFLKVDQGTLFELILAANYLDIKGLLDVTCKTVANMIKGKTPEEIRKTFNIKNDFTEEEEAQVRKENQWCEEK
Experimental: Surface Plasmon Resonance (SPR)
Experiments were carried out using the Biacore T200 SPR detection system. This system exploits the phenomenon of surface plasmon resonance (SPR) to monitor interactions between molecules. The system involves the attachment of one interacting partner to a surface (an appropriate sensor chip) while the other interacting partner is passed over it in solution. The binding of molecules to the surface generates an SPR response (measured in response units (RU)) that is proportional to the mass and amount of the biomolecule (in this case βTrCP/Skp1) bound to the chip. The relative responses obtained are dependent on the concentration of the molecule binding. At RUmaximum, the attached protein's binding sites are saturated. Binding events can be followed in real time and a range of interaction characteristics can be determined including kinetics, specificity of interactions and the concentration of specific molecules in a sample.
As βTrCP was His tagged, an NTA sensor chip was used. This sensor chip has a dextran surface matrix with immobilized nitrilotriacetic acid (NTA) which provides a means of capturing polyHis-tagged proteins through Nickel chelation. It was hoped that addition of Ni^+ would orient the protein in a specific (and hopefully active) manner as it is covalently immobilised via amine coupling. Addition of EDC:NHS (N-ethyl-N′-(3-[…])-carbodiimide:N-hydroxysuccinimide) converts carboxyl groups on the dextran sensor chip surface to succinamide esters which readily form covalent bonds with primary amines. Each chip contains four flow cells (each a separate surface) which means that compounds/peptides can be passed over different forms of βTrCP and a reference surface simultaneously. If binding to βTrCP is occurring, responses should be the same (accounting for differences in density of surface etc) on each surface.
Two different βTrCP protein complexes were immobilised on to an NTA biacore sensor chip. One included the GSTSkp1 fusion (HisβTrCP/GSTSkp1) while the other was immobilised after GST Removal by Thrombin (HisβTrCP/Skp1). To ensure that the GST moiety is completely removed from Skp1, βTrCP/GSTSkp1 was incubated with thrombin ((10units/mg protein) for at least 16 hours at room temperature in 10mMHEPES 150mMNaCl pH7.4+2 mM CaCl2. Thrombin and GST were removed from βTrCP/Skp1 by buffer exchange through a 50 KDa MWCO vivaspin concentrator.
Protein Immobilisation Procedure for NTA Chip
Ni+ (500 μM NiCl) loaded on to surface at a flow rate of 5 μl/min for 60s. EDC/NHS (activates dextran carboxylates) loaded at a flow rate of 5 μl/min for 240s. Protein ([protein]=100 nM to 1 μM) loaded at a flow rate of 10 μl/min for 180s. Strip solution (350 μM EDTA/1M NaCl) added at flow rate of 10 μl/min for 30s (to chelate excess Ni+ and remove non-covalently bound protein e.g. protein oligomers). Quench solution (ethanolamine) at flow rate of 5 μl/min for 240s (to deactivate surface molecules on the chip that have not crosslinked protein). The immobilisation buffer used was 10 mM HEPES pH 7.4, 150 mM NaCl,
GST Capture Procedure (for Immobilisation Via GSTSkp1)
EDC:NHS was injected at 5 μl/min for 4 min to activate surface for amine coupling (this converts carboxyl groups on the surface of the chip to succinamide esters that react with primary amines)
Anti-GST (60 μg/ml). was loaded at 10 μl/min for 4 min resulting in an increase in response units of 6730 (Biacore manual states it should result in ˜7000)
Ethanolamine was injected at 5 μl/min for 5 min to deactivate remaining unreacted esters at surface (quenching).
Injection of a low concentration of purified GST (from kit) was injected for 3 mins at 5 μl/min before running a regeneration cycle with glycine pH2.0 that disrupts the antibody-GST interaction. […]

FBW7/Skp1 = FBW7/Skp1 (Homo sapiens, UniProt Q969H0); assay: Selectivity assay vs other E3s: Fbw7; format: biochemical; conditions: for inhibition at 100 µM: value in brackets, read-out: % Inhibition Fbw7 @ (100 μM); for inhibition at 10 µM: read-out: % Inhibition Fbw7 @ 10 μM
Sequence of FBW7/Skp1 (Q969H0 whole entry, species assumed): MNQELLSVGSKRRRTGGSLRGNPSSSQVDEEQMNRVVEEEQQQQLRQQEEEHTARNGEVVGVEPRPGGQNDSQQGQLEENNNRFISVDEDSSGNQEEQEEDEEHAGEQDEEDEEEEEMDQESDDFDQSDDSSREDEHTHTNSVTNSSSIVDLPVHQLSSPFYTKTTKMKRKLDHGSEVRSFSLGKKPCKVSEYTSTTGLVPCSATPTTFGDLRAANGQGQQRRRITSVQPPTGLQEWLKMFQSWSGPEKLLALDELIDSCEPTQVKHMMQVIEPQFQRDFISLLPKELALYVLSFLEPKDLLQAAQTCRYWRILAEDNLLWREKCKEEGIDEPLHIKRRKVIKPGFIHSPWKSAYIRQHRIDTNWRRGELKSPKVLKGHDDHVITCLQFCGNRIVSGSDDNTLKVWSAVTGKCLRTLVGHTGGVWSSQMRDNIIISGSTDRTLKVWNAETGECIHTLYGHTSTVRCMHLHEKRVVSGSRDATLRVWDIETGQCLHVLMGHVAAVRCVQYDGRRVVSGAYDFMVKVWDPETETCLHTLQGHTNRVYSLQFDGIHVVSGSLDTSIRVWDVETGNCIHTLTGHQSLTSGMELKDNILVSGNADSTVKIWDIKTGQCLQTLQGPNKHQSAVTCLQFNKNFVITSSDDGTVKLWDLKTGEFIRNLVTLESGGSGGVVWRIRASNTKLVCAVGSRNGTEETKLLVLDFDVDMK
Sequence of FBW7/Skp1 (P63208 whole entry partner, species assumed): as the sequence (P63208 whole entry partner, one chain of several) above
Sequence of FBW7/Skp1 (Q13616 whole entry partner, species assumed): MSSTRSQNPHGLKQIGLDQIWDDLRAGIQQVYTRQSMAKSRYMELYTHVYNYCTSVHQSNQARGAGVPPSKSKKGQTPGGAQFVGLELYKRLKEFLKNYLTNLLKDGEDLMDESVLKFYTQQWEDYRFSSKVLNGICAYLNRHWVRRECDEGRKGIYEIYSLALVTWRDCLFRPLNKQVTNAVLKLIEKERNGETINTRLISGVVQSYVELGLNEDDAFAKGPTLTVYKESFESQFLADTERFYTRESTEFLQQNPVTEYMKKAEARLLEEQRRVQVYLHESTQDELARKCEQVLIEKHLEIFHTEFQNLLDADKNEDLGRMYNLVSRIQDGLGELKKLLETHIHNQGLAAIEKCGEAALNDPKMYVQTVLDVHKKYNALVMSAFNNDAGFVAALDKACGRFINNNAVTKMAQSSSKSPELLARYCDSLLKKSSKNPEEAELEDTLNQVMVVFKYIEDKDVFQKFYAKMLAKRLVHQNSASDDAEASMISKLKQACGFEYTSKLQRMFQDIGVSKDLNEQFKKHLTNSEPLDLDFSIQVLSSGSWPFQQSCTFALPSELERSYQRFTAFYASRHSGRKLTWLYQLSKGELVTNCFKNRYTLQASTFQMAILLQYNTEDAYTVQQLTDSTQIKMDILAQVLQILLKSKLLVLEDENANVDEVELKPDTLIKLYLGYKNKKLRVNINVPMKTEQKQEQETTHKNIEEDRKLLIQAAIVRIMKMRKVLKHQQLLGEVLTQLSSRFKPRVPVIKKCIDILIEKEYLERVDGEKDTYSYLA
Sequence of FBW7/Skp1 (P62877 whole entry partner, species assumed): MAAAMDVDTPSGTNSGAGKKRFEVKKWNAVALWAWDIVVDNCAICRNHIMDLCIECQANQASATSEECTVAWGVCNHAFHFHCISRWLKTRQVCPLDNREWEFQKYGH
In short: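 FBW7/Skp1 E3 ubiquitination of cyclin E substrate in 50 mM HEPES pH 7.5, 75 mM NaCl, 1 mM DTT; preincubated 30 min at room temperature before Mg/ATP, then 60 min more. Products resolved by 10% SDS-PAGE and immunoblotted with anti-cyclin E.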

Skp2 = Skp2 (Homo sapiens, UniProt Q13309); assay: Selectivity assay vs other E3s: Skp2; format: biochemical; conditions: for inhibition at 100 µM: value in brackets, read-out: % Inhibition Skp2 @ (100 μM); for inhibition at 10 µM: read-out: % Inhibition Skp2 @ 10 μM
Sequence of Skp2 (Q13309 whole entry, species assumed): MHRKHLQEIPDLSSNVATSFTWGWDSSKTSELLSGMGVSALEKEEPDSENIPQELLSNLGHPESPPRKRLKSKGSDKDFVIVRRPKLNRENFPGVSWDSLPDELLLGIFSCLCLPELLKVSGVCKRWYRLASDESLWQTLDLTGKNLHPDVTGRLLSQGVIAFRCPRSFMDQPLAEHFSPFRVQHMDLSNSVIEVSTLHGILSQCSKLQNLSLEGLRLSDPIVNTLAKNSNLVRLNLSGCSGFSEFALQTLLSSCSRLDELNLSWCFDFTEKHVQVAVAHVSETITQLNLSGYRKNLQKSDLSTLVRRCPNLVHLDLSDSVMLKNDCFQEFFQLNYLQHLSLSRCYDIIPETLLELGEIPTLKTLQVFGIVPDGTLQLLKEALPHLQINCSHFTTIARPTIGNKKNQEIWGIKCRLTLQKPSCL
Sequence of Skp2 (P63208 whole entry partner, species assumed): as the sequence (P63208 whole entry partner, one chain of several) above
Sequence of Skp2 (Q13616 whole entry partner, species assumed): as the sequence (Q13616 whole entry partner, species assumed) above
Sequence of Skp2 (P62877 whole entry partner, species assumed): as the sequence (P62877 whole entry partner, species assumed) above
In short: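 Skp2 ubiquitination was measured in master mixes of 50 mM Herpes buffer, pH 7.5, with 75 mM NaCl and 1 mM DTT, lacking Mg or ATP. Test compounds were preincubated for 30 minutes at room temperature, Mg/ATP was added for a further 60 minutes, and reactions were boiled in SDS loading buffer, resolved on 10% SDS-PAGE, blotted to nitrocellulose and probed with HRP-Streptavidin.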

β-TrCP1/Skp1 = β-TrCP1/Skp1 (Homo sapiens, UniProt Q9Y297); assay: βTrCP ubiquitination assay (Ub assay); format: biochemical; conditions: for Ub Assay 10 μM: 10 μM compound; for Ub Assay 100 μM: 100 μM compound
Sequence of β-TrCP1/Skp1 (P63208 2-163 partner limits assumed, one chain of several): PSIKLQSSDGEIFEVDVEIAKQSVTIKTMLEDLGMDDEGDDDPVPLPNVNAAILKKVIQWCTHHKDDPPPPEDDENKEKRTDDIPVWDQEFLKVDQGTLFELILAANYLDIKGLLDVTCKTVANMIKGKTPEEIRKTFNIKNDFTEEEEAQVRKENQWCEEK
Experimental: βTrCP Ubiquitination Assay and Selectivity Assays
0.5 μM Peptide substrate (biotin)
Master mixes were prepared in a 50 mM Herpes buffer at pH 7.5, in 75 mM NaCl and 1 mM DTT without Mg or ATP and peptides were added to a final concentration of 100 μM. Reactions were incubated at room temperature for 30 minutes and then Mg/ATP was added to the mix. Reactions were further incubated for an additional 60 minutes and then stopped by adding SDS gel loading buffer and boiled for 5 minutes. Reactions were run on SDS-PAGE (10%) and transferred to nitrocellulose membranes and probed with HRP-Streptavidin.
Candidate compounds were tested in duplicate at both 10 and 100 μM against the E3 ligase cascades βTrCP(IκBα) and βTrCP(β-catenin). The E3 assays were carried out according to the component concentrations detailed in Table 9. In each case the E2 was HA,6His-UbcH3-(hu,FL), the E1 was 6His-UBE1-(hu,FL) and the ubiquitin (Sigma U6253) was biotinylated at a 5:1 ratio. Substrate phosphorylation was performed in the absence of compound; consequently any observed signal modulation should not reflect inhibition of the up-stream kinase reaction. All other steps (E1, E2 and substrate ubiquitination) were carried out in the presence of compound. The stopped reaction mix (10 μl) was added to an ECL plate loaded with anti c-Myc ( 1/500 Dilution, Millipore 05-724) and blocked with 5% BSA. Binding was allowed to proceed for 1 hour at RT before a wash step (3 40 μl PBST washes). Detection was achieved by binding SA-Ru TAG at 1 μg/ml (1 hour @ RT, 3 40 μl PBST washes) before reading on an MSD Sector Imager 6000.
Assays were performed as described above

βTrCP [1] = target: βTrCP (Homo sapiens, UniProt Q9Y297); assay: Fluorescence polarisation (FP) binding assay with fluorescein-tagged IκB peptide
Target sequence in this assay (P63208 whole entry partner, one chain of several): as the sequence (P63208 whole entry partner, one chain of several) above

βTrCP [2] = target: T1, βTrCP (Homo sapiens, UniProt Q9Y297); assay: Biotin pull down assay with biotinylated IκB peptide; format: binding; conditions: for Biotin Pulldown Assay 10 μM: 10 μM compound; for Biotin Pulldown Assay 100 μM: 100 μM compound
T1 sequence (Q9Y297 1-605): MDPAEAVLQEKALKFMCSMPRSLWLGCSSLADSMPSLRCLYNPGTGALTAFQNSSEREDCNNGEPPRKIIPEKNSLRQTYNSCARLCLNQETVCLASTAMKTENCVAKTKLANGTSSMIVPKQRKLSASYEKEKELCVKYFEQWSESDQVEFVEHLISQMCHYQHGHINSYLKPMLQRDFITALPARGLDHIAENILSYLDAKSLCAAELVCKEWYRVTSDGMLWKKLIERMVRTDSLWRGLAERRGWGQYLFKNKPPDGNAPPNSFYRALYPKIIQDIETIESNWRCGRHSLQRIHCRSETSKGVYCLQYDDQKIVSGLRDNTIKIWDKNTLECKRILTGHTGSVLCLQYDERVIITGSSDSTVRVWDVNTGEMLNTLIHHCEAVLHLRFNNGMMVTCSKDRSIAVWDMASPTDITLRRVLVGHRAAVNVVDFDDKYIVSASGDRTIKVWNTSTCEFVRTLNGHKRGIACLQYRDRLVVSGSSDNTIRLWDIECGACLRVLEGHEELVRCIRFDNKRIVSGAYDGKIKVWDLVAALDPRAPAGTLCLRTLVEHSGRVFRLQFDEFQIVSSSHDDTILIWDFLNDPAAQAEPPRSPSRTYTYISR

[3] = Table 11, with spread, read-out: FP IC50/μM
[4] = Tables 1, 3, 7, 8, 10 nM fluorescein-tagged IκB peptide, read-out: FP Assay IC50/μM

Compound | Kd (βTrCP/Skp1) | inhibition at 100 µM (FBW7/Skp1) | inhibition at 10 µM (FBW7/Skp1) | inhibition at 100 µM (Skp2) | inhibition at 10 µM (Skp2) | Ub Assay 10 μM (β-TrCP1/Skp1) | Ub Assay 100 μM (β-TrCP1/Skp1) | IC50 (βTrCP [1]; [3]) | Biotin Pulldown Assay 10 μM (βTrCP [2]) | Biotin Pulldown Assay 100 μM (βTrCP [2]) | IC50 (βTrCP [1]; [4])
NC(=O)[C@H](CCC(=O)O)NC(=O)[C@H](Cc1ccc([N+](=O)[O-])cc1)NC(=O)[C@H](Cc1ccc(F)cc1)NC(=O)CNC(=O)[C@H](CCC(=O)O)NC(=O)CCC(=O)O [UBP005, Suc-EGF(4F)F(4NO2)E-NH2] (Suc-EG[Phe(4-F)][Phe(4-NO2)]E-NH2) | 0.507 ± 0.267 µM | 0% | 0% | 0% | 0% | reduces/ | inhibits | 1.21 ± 0.093 µM | no effect/ | inhibits | 
COc1ccc(C[C@H](NC(=O)[C@H](Cc2ccccc2F)NC(=O)CNC(=O)[C@H](CCC(=O)O)NC(=O)CCC(=O)O)C(=O)N[C@@H](CCC(=O)O)C(N)=O)cc1 [UBP006, Suc-EGF(2F)Y(Me)E-NH2] (Suc-EG[Phe(2-F)]Y(Me)E-NH2) | 4.4 ± 0.82 µM | 4% | 0% | 4% | 0% | no effect/ | inhibits | 3.28 ± 0.5 µM | no effect/ | reduces | 3.2 µM
NC(=O)[C@H](CCC(=O)O)NC(=O)[C@H](Cc1ccccc1)NC(=O)[C@H](Cc1ccc(O)cc1)NC(=O)CNC(=O)[C@H](CCC(=O)O)NC(=O)CCC(=O)O [UBP007, Suc-EGYFE-NH2] (Suc-EGYFE-NH2) | 0.537 ± 0.117 µM | 0% | 0% | 28% | 11% | reduces/ | inhibits | 1.04 ± 0.101 µM | no effect/ | inhibits | 1 µM
NC(=O)[C@H](CCC(=O)O)NC(=O)[C@H](Cc1ccc([N+](=O)[O-])cc1)NC(=O)[C@H](Cc1cccc(F)c1)NC(=O)CNC(=O)[C@H](CCC(=O)O)NC(=O)/C=C\C(=O)O [UBP008, Mal-EGF(3F)F(4NO2)E-NH2] (Maleoyl-EG[Phe(3-F)][Phe(4-NO2)]E-NH2) | 1.46 ± 0.035 µM | 18% | 0% | 14% | 0% | no effect/ | inhibits | 2.17 ± 0.425 µM | no effect/ | inhibits | 
NC(=O)[C@H](CCC(=O)O)NC(=O)[C@H](Cc1cccc2ccccc12)NC(=O)[C@H](Cc1ccc(O)cc1)NC(=O)CNC(=O)[C@H](CCC(=O)O)NC(=O)CCC(=O)O [UBP009, Suc-EGY1NalE-NH2] (Suc-EGY[1Nal]E-NH2) | 1.49 ± 0.625 µM | 5% | 1% | 6% | 0% | reduces/ | inhibits | 1.15 ± 0.222 µM | no effect/ | inhibits | 1.15 µM
NC(=O)[C@H](CCC(=O)O)NC(=O)[C@H](Cc1cccc2ccccc12)NC(=O)[C@H](Cc1cccc(F)c1)NC(=O)CNC(=O)[C@H](CCC(=O)O)NC(=O)CCC(=O)O [UBP010, Suc-EGF(3F)1NalE-NH2] (Suc-EG[Phe(3-F)][1Nal]E-NH2) | 0.32 ± 0.24 µM | 0% | 3% | 12% | 0% | inhibits/ | inhibits | 0.157 ± 0.037 µM | inhibits/ | inhibits | 0.157 µM
NC(=O)[C@H](CCC(=O)O)NC(=O)[C@H](Cc1cccc2ccccc12)NC(=O)[C@H](Cc1ccc([N+](=O)[O-])cc1)NC(=O)CNC(=O)[C@H](CCC(=O)O)NC(=O)CCC(=O)O [UBP011, Suc-EGF(4NO2)1NalE-NH2] (Suc-EG[Phe(4-NO2)][1Nal]E-NH2) | 1.96 ± 0.635 µM | 28% | 14% | 6% | 12% | reduces/ | inhibits | 1.31 ± 0.198 µM | reduces/ | inhibits | 
